Measured values reported in patent US9670227B2, “Thienopyrimidine derivatives, a process for their preparation and pharmaceutical compositions containing them” (LES LABORATOIRES SERVIER, priority 2013, dated 2017).
Where two headings read alike, the source gives them in different places.

How the values were obtained:
Mcl-1 protein = Mcl-1 protein (UniProtKB primary accession number: Q07820) (Homo sapiens, UniProt Q07820); test: Inhibition of Mcl-1 by fluorescence polarisation, Method 1; assay type: binding; conditions: for IC50: read-out: IC50 (M) Mcl-1 FP
Sequence of Mcl-1 protein (Q07820 whole entry): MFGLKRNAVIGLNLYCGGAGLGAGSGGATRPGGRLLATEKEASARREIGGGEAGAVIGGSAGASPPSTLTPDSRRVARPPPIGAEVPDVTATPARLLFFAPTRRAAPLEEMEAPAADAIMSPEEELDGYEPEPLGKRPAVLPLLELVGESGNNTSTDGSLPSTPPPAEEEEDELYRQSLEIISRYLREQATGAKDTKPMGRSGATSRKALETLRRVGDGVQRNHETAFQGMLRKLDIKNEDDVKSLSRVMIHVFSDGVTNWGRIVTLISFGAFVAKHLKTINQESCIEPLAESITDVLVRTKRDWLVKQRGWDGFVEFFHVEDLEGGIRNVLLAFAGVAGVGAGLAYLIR
How it was run: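 Fluorescence polarisation competition with an 11-point compound dilution series (final DMSO 5%). Mcl-1 protein at 5 nM and fluorescein-labelled ligand at 1 nM (final) in 10 mM HEPES, 150 mM NaCl, 0.05% Tween 20, pH 7.4.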

[1] = test system: H929 multiple myeloma tumour line; test: In vitro cytotoxicity, Microculture Tetrazolium Assay; assay type: cell-based; conditions: read-out: IC50 (μM) MTT H929
Procedure: The cytotoxicity studies were carried out on the H929 multiple myeloma tumour line.
The cells are distributed onto microplates and exposed to the test compounds for 48 hours.

[2] = fluorescence polarisation test, Method 2 values are underlined in the patent (underlining not visible here)
[3] = Homo sapiens, NCI-H929, 48 h, H929 cells, 48 hours exposure, MTT
[4] = fluorescence polarisation, Method 1, or Method 2

Row | IC50 (Mcl-1 protein; [2]) | IC50 (Mcl-1 protein; [4]) | Structure (SMILES) | also measured
1 |  | 3.7e-09 M | Cc1c(-c2c(-c3cccc(F)c3)sc3ncnc(O[C@H](Cc4ccccc4O)C(=O)O)c23)ccc(OCCN2CCN(C)CC2)c1Cl [Example 711, (2R)-2-{[(5Sa)-5-{3-chloro-2-methyl-4-[2-(4-methylpiperazin-1-yl)ethoxy]phenyl}-6-(3-fluorophenyl)thieno[2,3-d]pyrimidin-4-yl]oxy}-3-(2-hydroxyphenyl)propanoic acid] | IC50 ([1]; H929 cells, 48 hours exposure, MTT): 0.591 µM
2 |  | 1.4e-08 M | Cc1c(-c2c(-c3ccc(F)c(F)c3)sc3ncnc(OC(Cc4ccccc4OCc4ccnc(C(F)(F)F)n4)C(=O)O)c23)ccc(OCCN2CCN(C)CC2)c1Cl [Example 707, (2R)-2-{[(5Sa)-5-{3-chloro-2-methyl-4-[2-(4-methylpiperazin-1-yl)ethoxy]phenyl}-6-(3,4-difluorophenyl)thieno[2,3-d]pyrimidin-4-yl]oxy}-3-(2-{[2-(trifluoromethyl)pyrimidin-4-yl]methoxy}phenyl)propanoic acid] | IC50 [1, 3]: 0.042 µM
3 |  | 1.5e-06 M | COc1ccccc1C[C@@H](Oc1ncnc2sc(-c3cccc(F)c3F)c(-c3ccc(C#CCN4CCN(C)CC4)c(Cl)c3C)c12)C(=O)O (single isomer, unassigned) [Example 716] | 
4 |  | 2.1e-06 M | Cc1c(Cl)cccc1-c1c(-c2ccco2)sc2ncnc(OC(Cc3ccccc3OCCN3CCN(C)CC3)C(=O)O)c12 [Example 667, (2S)-2-{[(5Ra)-5-(3-chloro-2-methylphenyl)-6-(furan-2-yl)thieno[2,3-d]pyrimidin-4-yl]oxy}-3-{2-[2-(4-methylpiperazin-1-yl)ethoxy]phenyl}propanoic acid] | 
5 |  | 5.04e-09 M | COc1ccccc1Cn1ccc(COc2ccccc2CC(Oc2ncnc3sc(-c4ccc(F)cc4)c(-c4ccc(OCCN5CCN(C)CC5)c(Cl)c4C)c23)C(=O)O)n1 [Example 740, (2R)-2-{[(5Sa)-5-{3-chloro-2-methyl-4-[2-(4-methylpiperazin-1-yl)ethoxy]phenyl}-6-(4-fluorophenyl)thieno[2,3-d]pyrimidin-4-yl]oxy}-3-(2-{[1-(2-methoxybenzyl)-1H-pyrazol-3-yl]methoxy}phenyl)propanoic acid] | 
6 |  | 2.7e-06 M | C=C(C)c1sc2ncnc(O[C@H](Cc3ccccc3)C(=O)O)c2c1-c1cccc(Cl)c1C (single isomer, unassigned) [Example 719] | 
7 |  | 4.1e-07 M | Cc1c(-c2c(-c3cnn(C)c3)sc3ncnc(OC(Cc4ccccc4)C(=O)O)c23)ccc(OCCN2CCOCC2)c1Cl [Example 712, (2R)-2-{[(5Sa)-5-{3-chloro-2-methyl-4-[2-(morpholin-4-yl)ethoxy]phenyl}-6-(1-methyl-1H-pyrazol-4-yl)thieno[2,3-d]pyrimidin-4-yl]oxy}-3-phenylpropanoic acid] | 

More lines, now with the values behind:

Row | Structure (SMILES) | IC50 (Mcl-1 protein; [2]) | IC50 (Mcl-1 protein; [4]) | also measured
8 | Cc1c(-c2c(-c3ccco3)sc3ncnc(OC(Cc4ccccc4OCc4cn(C)cn4)C(=O)O)c23)ccc(OCCN2CCN(C)CC2)c1Cl [Example 267, (2R)-2-{[(5Sa)-5-{3-chloro-2-methyl-4-[2-(4-methylpiperazin-1-yl)ethoxy]phenyl}-6-(furan-2-yl)thieno[2,3-d]pyrimidin-4-yl]oxy}-3-{2-[(1-methyl-1H-imidazol-4-yl)methoxy]phenyl}propanoic acid] | 8.8e-09 M |  | IC50 [1, 3]: 1.6 µM
9 | Cc1c(-c2c(-c3ccco3)sc3ncnc(OC(Cc4ccccc4OCc4ccnc(N5CCOCC5)n4)C(=O)O)c23)ccc(OCCN2CCN(C)CC2)c1Cl [Example 252, (2R)-2-{[(5Sa)-5-{3-chloro-2-methyl-4-[2-(4-methylpiperazin-1-yl)ethoxy]phenyl}-6-(furan-2-yl)thieno[2,3-d]pyrimidin-4-yl]oxy}-3-(2-{[2-(morpholin-4-yl)pyrimidin-4-yl]methoxy}phenyl)propanoic acid] | 4.2e-09 M |  | IC50 [1, 3]: 0.009 µM
10 | COc1ccccc1CC(Oc1ncnc2sc(-c3cc(C)co3)c(-c3ccc(OCCN4CCN(C)CC4)c(Cl)c3C)c12)C(=O)O [Example 529, (2R)-2-{[(5Sa)-5-{3-chloro-2-methyl-4-[2-(4-methylpiperazin-1-yl)ethoxy]phenyl}-6-(4-methylfuran-2-yl)thieno[2,3-d]pyrimidin-4-yl]oxy}-3-(2-methoxyphenyl)propanoic acid] |  | 1.3e-08 M | IC50 [1, 3]: 0.308 µM
11 | CCn1nccc1COc1ccccc1CC(Oc1ncnc2sc(-c3ccc(F)c(OC)c3)c(-c3ccc(OCCN4CCN(C)CC4)c(Cl)c3C)c12)C(=O)O [Example 384, (2R)-2-{[(5Sa)-5-{3-chloro-2-methyl-4-[2-(4-methylpiperazin-1-yl)ethoxy]phenyl}-6-(4-fluoro-3-methoxyphenyl)thieno[2,3-d]pyrimidin-4-yl]oxy}-3-{2-[(1-ethyl-1H-pyrazol-5-yl)methoxy]phenyl}propanoic acid] | 3.8e-09 M |  | IC50 [1, 3]: 0.053 µM
12 | Cc1c(-c2c(-c3ccco3)sc3ncnc(OC(Cc4ccccc4OCc4ccnn4CC(F)(F)F)C(=O)O)c23)ccc(OCCN2CCN(C)CC2)c1Cl [Example 265, (2R)-2-{[(5Sa)-5-{3-chloro-2-methyl-4-[2-(4-methylpiperazin-1-yl)ethoxy]phenyl}-6-(furan-2-yl)thieno[2,3-d]pyrimidin-4-yl]oxy}-3-(2-{[1-(2,2,2-trifluoroethyl)-1H-pyrazol-5-yl]methoxy}phenyl)propanoic acid] |  |  | IC50 [1, 3]: 0.016 µM
13 | Cc1c(-c2c(-c3ccc(F)o3)sc3ncnc(OC(Cc4ccccc4OCc4ccnn4CC(F)(F)F)C(=O)O)c23)ccc(OCCN2CCN(C)CC2)c1Cl [Example 185, (2R)-2-{[(5Sa)-5-{3-chloro-2-methyl-4-[2-(4-methylpiperazin-1-yl)ethoxy]phenyl}-6-(5-fluorofuran-2-yl)thieno[2,3-d]pyrimidin-4-yl]oxy}-3-(2-{[1-(2,2,2-trifluoroethyl)-1H-pyrazol-5-yl]methoxy}phenyl)propanoic acid] |  |  | IC50 ([1]; Homo sapiens, NCI-H929, 48 h): 0.012 µM
14 | Cc1c(-c2c(-c3ccc(F)o3)sc3ncnc(OC(Cc4ccccc4OCc4ccnn4C(C)(C)C)C(=O)O)c23)ccc(OCCN2CCN(C)CC2)c1Cl [Example 181, (2R)-3-{2-[(1-tert-butyl-1H-pyrazol-5-yl)methoxy]phenyl}-2-{[(5Sa)-5-{3-chloro-2-methyl-4-[2-(4-methylpiperazin-1-yl)ethoxy]phenyl}-6-(5-fluorofuran-2-yl)thieno[2,3-d]pyrimidin-4-yl]oxy}propanoic acid] | 4.8e-09 M |  | 
15 | Cc1c(-c2c(-c3ccco3)sc3ncnc(OC(Cc4cccc(F)c4F)C(=O)O)c23)ccc(OCCN2CCN(C)CC2)c1Cl [Example 350, (2R)-2-{[(5Sa)-5-{3-chloro-2-methyl-4-[2-(4-methylpiperazin-1-yl)ethoxy]phenyl}-6-(furan-2-yl)thieno[2,3-d]pyrimidin-4-yl]oxy}-3-(2,3-difluorophenyl)propanoic acid] | 2.8e-08 M |  | 
16 | COc1ccccc1C[C@@H](Oc1ncnc2sc(-c3ccco3)c(-c3ccc(OCCN4CCN(C)CC4)c(F)c3C)c12)C(=O)O (single isomer, unassigned) [Example 333] | 7.9e-07 M |  | 
17 | COc1ccccc1CC(Oc1ncnc2sc(-c3ccc(-c4ccccc4)o3)c(-c3ccc(OCCN4CCN(C)CC4)c(Cl)c3C)c12)C(=O)O [Example 586, (2R)-2-{[(5Sa)-5-{3-chloro-2-methyl-4-[2-(4-methylpiperazin-1-yl)ethoxy]phenyl}-6-(5-phenylfuran-2-yl)thieno[2,3-d]pyrimidin-4-yl]oxy}-3-(2-methoxyphenyl)propanoic acid] |  | 1.4e-06 M | 
18 | CC(C)=Cc1sc2ncnc(OC(Cc3ccccc3)C(=O)O)c2c1-c1ccc(OCCN2CCN(C)CC2)c(Cl)c1C [Example 494, (2R)-2-{[(5Sa)-5-{3-chloro-2-methyl-4-[2-(4-methylpiperazin-1-yl)ethoxy]phenyl}-6-(2-methylprop-1-en-1-yl)thieno[2,3-d]pyrimidin-4-yl]oxy}-3-phenylpropanoic acid] |  | 4.4e-08 M | 
19 | CCOC(=O)[C@@H](Cc1ccccc1OC[C@H]1CCCO1)Oc1ncnc2sc(-c3ccc(F)cc3)c(-c3ccc(OCCN4CCN(C)CC4)c(Cl)c3C)c12 [Example 628, ethyl (2R)-2-{[(5Sa)-5-{3-chloro-2-methyl-4-[2-(4-methylpiperazin-1-yl)ethoxy]phenyl}-6-(4-fluorophenyl)thieno[2,3-d]pyrimidin-4-yl]oxy}-3-{2-[(2R)-tetrahydrofuran-2-ylmethoxy]phenyl}propanoate] |  |  | percentage fluorescence polarisation inhibition, Mcl-1 FP (Mcl-1 protein; partial inhibitors, @ 10 uM test compound): 33.2% @ 10 uM
20 | Cc1c(-c2c(-c3ccc(F)o3)sc3ncnc(OC(Cc4ccccc4OCC4CCCO4)C(=O)O)c23)ccc(OCCN2CCN(C)CC2)c1Cl [Example 150, (2R)-2-{[(5Sa)-5-{3-chloro-2-methyl-4-[2-(4-methylpiperazin-1-yl)ethoxy]phenyl}-6-(5-fluorofuran-2-yl)thieno[2,3-d]pyrimidin-4-yl]oxy}-3-{2-[(2R)-tetrahydrofuran-2-ylmethoxy]phenyl}propanoic acid] | 9.3e-09 M |  | 
21 | COc1ccccc1-c1nccc(COc2ccccc2CC(Oc2ncnc3sc(-c4ccc(F)cc4)c(-c4ccc(OC)c(Cl)c4C)c23)C(=O)O)n1 [Example 841, (2R)-2-{[(5Sa)-5-(3-chloro-4-methoxy-2-methylphenyl)-6-(4-fluorophenyl)thieno[2,3-d]pyrimidin-4-yl]oxy}-3-(2-{[2-(2-methoxyphenyl)pyrimidin-4-yl]methoxy}phenyl)propanoic acid] |  |  | IC50 (Mcl-1 protein; fluorescence polarisation test, Method 1, or Method 2 where the value is underlined (underlining not visible)): 4.8e-09 M
22 | COc1ccccc1CC(Oc1ncnc2sc(-c3ccc(Br)o3)c(-c3ccc(OCCN4CCN(C)CC4)c(Cl)c3C)c12)C(=O)O [Example 577, (2R)-2-{[6-(5-bromofuran-2-yl)-(5Sa)-5-{3-chloro-2-methyl-4-[2-(4-methylpiperazin-1-yl)ethoxy]phenyl}thieno[2,3-d]pyrimidin-4-yl]oxy}-3-(2-methoxyphenyl)propanoic acid] |  | 7.6e-09 M | 
